Laboratory results: patent US20260098007A1, “Compounds and Their Use in Filtering Ultraviolet and/or High-Energy Visible Light” (Soliome Inc., priority 2022, published 2026)
Blank lines part the entries; values can stand above or below the compound they belong to. Where a SMILES comes first, the peptide text is derived from it. [ ]: non-standard residue; d: D form. Kyn = Nc1ccccc1C(=O)C[CH](N)C(=O)O

Tests used:
[1] = OxiSelect Hydroxyl Radical Antioxidant Capacity (HORAC) Activity Assay; type: biochemical; conditions: for antioxidant potential (HORAC) compared with gallic acid: result in words
Description: An OxiSelect Hydroxyl Radical Antioxidant Capacity (HORAC) Activity Assay (Cell Biolabs Inc. catalog #STA-346-T) was used to determine the antioxidant potential of compound 4 (butyl 4-(2-aminophenyl)-2-(4-(2-aminophenyl)-2-butyramido-4-oxobutanamido)-4-oxobutanoate) following the manufacturer's protocol. Gallic Acid (GA) was used as antioxidant Calibrator: The HORAC assay was used to evaluate the application of the compounds of the invention as antioxidant.
A small amount of compound 4 was resuspended in assay diluent and the concentration determined using the extinction coefficient previously determined at 368 nm (6070 M^−1 cm^−1). The concentration of the stock solution was 624 μM. Three concentrations of the compound were tested in the assay: 468 μM, 312 μM, and 156 μM. The assay was run in a clear bottomed 96-well plate using a Molecular Devices SpectraMax M2 with an excitation wavelength of 480 nm and an emission wavelength of 530 nm. The emission wavelength cutoff was set to 515 nm. The photomultiplier sensitivity set to medium. The plate was read once a minute for 60 minutes.
Compounds 42, 43, 44, and 46, were tested for their antioxidant capacity as described as previously described using an OxiSelect Hydroxyl Radical Antioxidant Capacity (HORAC) Activity Assay (Cell Biolabs Inc. catalog #sta-346-T).

[2] = Determination of maximal UV absorbance, extinction coefficients and critical wavelengths (UV visible spectroscopy); type: physicochemical; conditions: for peak absorbance: UV visible spectroscopy, diluted in ethanol; for critical wavelength: in vitro, 90% of the total absorbance integrated from 290 to 400 nm
Procedure: Extinction coefficients were determined by measuring the dry mass of each compounds and diluting it serially in ethanol (CAS […]). A series of concentrations were tested with UV visible spectroscopy.
In vitro critical wavelengths were determined by integrating the total absorbance from 290 to 400 nm and finding the region under that curve from higher energy to lower energy that is equal to 90% of the total absorbance, similar to that described by Diffey B. L., et al. J. Am. Acad. Dermatol. 2000, 43, 1024-1035.

skin = assay: Skin protection against damage by UV (erythema); type: in vivo; conditions: 10% (w/w) solution at 2 mg/cm^2 on skin, Sperti Sun Lamp 20 cm for 10 min, vs unprotected skin
Procedure: To test the protective capability of this class of compounds against damage to skin by UV, a 10% (w/w) solution of compounds was applied to skin at 2 mg/cm^2 and allowed to dry for 15 minutes. UV light was introduced using a […] Sun Lamp (model Miami P107). The application area on the skin was held facing the lamp at a distance of 20 cm for 10 min.

[3] = Absorbance spectrum (ultraviolet-visible spectroscopy, diode array detector); type: physicochemical; conditions: for absorbance region (in words): FIG. 1 and 2
Procedure: High pressure liquid chromatography: Samples were suspended in ethanol (Sigma Aldrich 103343081, CAS 64-17-5) and injected onto a reverse phase base deactivated silica C-18 column, […], 150×4.6 mm (Hypersil 9867). This column was temperature controlled at 35° C. using a Shimadzu CTO-10A column oven. Samples were injected with a Shimadzu SIL-10AD VP auto injector. The program was run using a Shimadzu LC1-20AD pump system, and detection was monitored with ultraviolet-visible spectroscopy from 200 to 700 nm using a Shimadzu SPD-M20A diode array detector.

SMILES: COC(=O)C(CC(=O)c1ccccc1N)NC(=O)C[N+](C)(C)C (centres unmarked) [Compound 43, 2-((4-(2-aminophenyl)-1-methoxy-1,4-dioxobutan-2-yl)amino)-N,N,N-trimethyl-2-oxoethan-1-aminium]
antioxidant potential (HORAC) compared with gallic acid [1]: equal, or greater than, gallic acid

SMILES: CC(=O)NC(CC(=O)c1ccccc1N)C(N)=O (centres unmarked) [Compound 44, 2-acetamido-4-(2-aminophenyl)-4-oxobutanamide]
antioxidant potential (HORAC) compared with gallic acid [1]: equal, or greater than, gallic acid

peak absorbance [2]: around 368 nm
critical wavelength [2]: 385 nm
SMILES: CCCCOC(=O)C(CC(=O)c1ccccc1N)NC(=O)C(CC(=O)c1ccccc1N)NC(=O)CCC (centres unmarked) [Compound 4, butyl 4-(2-aminophenyl)-2-(4-(2-aminophenyl)-2-butyramido-4-oxobutanamido)-4-oxobutanoate]
antioxidant potential (HORAC) ([1]; tested at 468 μM, 312 μM and 156 μM, gallic acid as calibrator): 1.8 gallic acid equivalents per mole

SMILES: Nc1ccccc1C(=O)CC(NC(=O)CCC(=O)O)C(=O)O (centres unmarked) [Compound 42, 4-(2-aminophenyl)-2-(3-carboxypropanamido)-4-oxobutanoic acid]
antioxidant potential (HORAC) compared with gallic acid [1]: equal, or greater than, gallic acid
erythema after UV exposure (skin): significantly reduced erythema

peak absorbance [2]: around 325 nm
critical wavelength [2]: 355 nm
extinction coefficient ([2]; slope of absorbance vs concentration, in ethanol, at peak absorbance): 4600 M⁻¹ cm⁻¹
SMILES: CCCCOC(=O)C(CC(=O)c1ccccc1NC(=O)CCC)NC(=O)C(CC(=O)c1ccccc1NC(=O)CCC)NC(=O)CCC (centres unmarked) [Compound 5, butyl 2-(2-butyramido-4-(2-butyramidophenyl)-4-oxobutanamido)-4-(2-butyramidophenyl)-4-oxobutanoate]

SMILES: Nc1ccccc1C(=O)CC(NC(=O)CCCC(=O)O)C(=O)O (centres unmarked) [Compound 46, 5-((3-(2-aminophenyl)-1-carboxy-3-oxopropyl)amino)-5-oxopentanoic acid]
antioxidant potential (HORAC) compared with gallic acid [1]: equal, or greater than, gallic acid

absorbance upper wavelength limit ([3]; FIG. 1): up to 410 nm
absorbance region (in words) [3]: strong absorbance in the UVA region
SMILES: COC(=O)C(CC(=O)c1ccccc1N)NC(=O)C(CC(=O)c1ccccc1N)NC(C)=O (centres unmarked) [Compound 1, methyl 2-(2-acetamido-4-(2-aminophenyl)-4-oxobutanamido)-4-(2-aminophenyl)-4-oxobutanoate] (Ac-[Kyn]-[Kyn]-OMe; configuration not given here)

absorbance region (in words) [3]: strong absorbance in the UVB region
SMILES: CCCC(=O)Nc1ccccc1C(=O)CC(NC(C)=O)C(=O)NC(CC(=O)c1ccccc1NC(=O)CCC)C(=O)OC (centres unmarked) [Compound 2, Methyl 2-(2-acetamido-4-(2-butyramidophenyl)-4-oxobutanamido)-4-(2-butyramidophenyl)-4-oxobutanoate]
